Laboratory results: patent US12435059B2, “AMP-activated protein kinase inhibitors and methods of making and using the same” (The Regents of the University of Colorado, priority 2019, dated 2025)
Like-named read-outs stand apart in the source and are kept apart here.

How the values were obtained:
Test in all cases: biochemical
Type in all cases: binding
468 kinases [1] = biological target: 468 kinases (Homo sapiens, UniProt P23458); details: JAK1(JH1domain-catalytic); read-out: % Inhibition @ 100 nM
468 kinases [2] = biological target: 468 kinases (Homo sapiens, UniProt Q15759); details: p38-beta; read-out: % Inhibition @ 100 nM
468 kinases [3] = biological target: 468 kinases (Homo sapiens, UniProt Q9UHD2); details: TBK1; read-out: % Inhibition @ 100 nM
468 kinases [4] = biological target: 468 kinases (Homo sapiens, UniProt Q96RR4); details: CAMKK2; read-out: % Inhibition @ 100 nM
468 kinases [5] = biological target: 468 kinases (Homo sapiens, UniProt Q9UPZ9); details: ICK; read-out: % Inhibition @ 100 nM
468 kinases [6] = biological target: 468 kinases (Homo sapiens, UniProt P42681); details: TXK; read-out: % Inhibition @ 100 nM
468 kinases [7] = biological target: 468 kinases (Homo sapiens, UniProt P35590); details: TIEI; read-out: % Inhibition @ 100 nM
468 kinases [8] = biological target: 468 kinases (Homo sapiens, UniProt P57059); details: SIK; read-out: % Inhibition @ 100 nM
468 kinases [9] = biological target: 468 kinases (Homo sapiens, UniProt O00141); details: SGK; read-out: % Inhibition @ 100 nM
468 kinases [10] = biological target: 468 kinases (Homo sapiens, UniProt Q9UKE5); details: TNIK; read-out: % Inhibition @ 100 nM
468 kinases [11] = biological target: 468 kinases (Homo sapiens, UniProt P54753); details: EPHB3; read-out: % Inhibition @ 100 nM
468 kinases [12] = biological target: 468 kinases (Homo sapiens, UniProt Q9H0K1); details: SIK2; read-out: % Inhibition @ 100 nM
468 kinases [13] = biological target: 468 kinases (Homo sapiens, UniProt P51813); details: BMX; read-out: % Inhibition @ 100 nM
468 kinases [14] = biological target: 468 kinases (Homo sapiens, UniProt P43403); details: ZAP70; read-out: % Inhibition @ 100 nM
468 kinases [15] = biological target: 468 kinases (Homo sapiens, UniProt Q13523); details: PRP4; read-out: % Inhibition @ 100 nM
468 kinases [16] = biological target: 468 kinases (Homo sapiens, UniProt Q9NYY3); details: PLK2; read-out: % Inhibition @ 100 nM
468 kinases [17] = biological target: 468 kinases (Homo sapiens, UniProt P51955); details: NEK2; read-out: % Inhibition @ 100 nM
468 kinases [18] = biological target: 468 kinases (Homo sapiens, UniProt P42336, C420R); details: PIK3CA(C420R); read-out: % Inhibition @ 100 nM
468 kinases [19] = biological target: 468 kinases (Homo sapiens, UniProt Q13546); details: RIPK1; read-out: % Inhibition @ 100 nM
468 kinases [20] = biological target: 468 kinases (Homo sapiens, UniProt P16234); details: PDGFRA; read-out: % Inhibition @ 100 nM
468 kinases [21] = biological target: 468 kinases (Homo sapiens, UniProt P42336, Q546K); details: PIK3CA(Q546K); read-out: % Inhibition @ 100 nM
468 kinases [22] = biological target: 468 kinases (Homo sapiens, UniProt O75116); details: ROCK2; read-out: % Inhibition @ 100 nM
468 kinases [23] = biological target: 468 kinases (Homo sapiens, UniProt P78362); details: SRPK2; read-out: % Inhibition @ 100 nM
468 kinases [24] = biological target: 468 kinases (Homo sapiens, UniProt P68400); details: CSNK2A1; read-out: % Inhibition @ 100 nM
468 kinases [25] = biological target: 468 kinases (Homo sapiens, UniProt Q9BVS4); details: RIOK2; read-out: % Inhibition @ 100 nM
468 kinases [26] = biological target: 468 kinases (Homo sapiens, UniProt Q9HAZ1); details: CLK4; read-out: % Inhibition @ 100 nM
468 kinases [27] = biological target: 468 kinases (Homo sapiens, UniProt P49759); details: CLK1; read-out: % Inhibition @ 100 nM
468 kinases [28] = biological target: 468 kinases (Homo sapiens, UniProt Q13177); details: PAK2; read-out: % Inhibition @ 100 nM
468 kinases [29] = biological target: 468 kinases (Homo sapiens, UniProt Q16566); details: CAMK4; read-out: % Inhibition @ 100 nM
468 kinases [30] = biological target: 468 kinases (Homo sapiens, UniProt Q06418); details: TYRO3; read-out: % Inhibition @ 100 nM
468 kinases [31] = biological target: 468 kinases (Homo sapiens, UniProt O75676); details: read-out: % Inhibition @ 100 nM
468 kinases [32] = biological target: 468 kinases (Homo sapiens, UniProt P45983); details: JNK1; read-out: % Inhibition @ 100 nM
468 kinases [33] = biological target: 468 kinases (Homo sapiens, UniProt Q9UKI8); details: TLK1; read-out: % Inhibition @ 100 nM

## CCN(CC)CCNC(=O)c1c(C)[nH]c(/C=C2\C(=O)Nc3ccc(CCO)cc32)c1C [Compound No. 10, (Z)—N-(2-(Diethylamino)ethyl)-5-((5-(2-hydroxyethyl)-2-oxoindolin-3-ylidene)methyl)-2,4-dimethyl-1H-pyrrole-3-carboxamide]
468 kinases [1]
  inhibition at 0.1 µM: 0%
468 kinases [2]
  inhibition at 0.1 µM: 80%
468 kinases [3]
  inhibition at 0.1 µM: 57%
468 kinases [4]
  inhibition at 0.1 µM: 29%
468 kinases [5]
  inhibition at 0.1 µM: 0%
468 kinases [6]
  inhibition at 0.1 µM: 10%
468 kinases [7]
  inhibition at 0.1 µM: 2%
468 kinases [8]
  inhibition at 0.1 µM: 0%
468 kinases [9]
  inhibition at 0.1 µM: 2%
468 kinases [10]
  inhibition at 0.1 µM: 86%
468 kinases [11]
  inhibition at 0.1 µM: 0%
468 kinases [12]
  inhibition at 0.1 µM: 0%
468 kinases [13]
  inhibition at 0.1 µM: 11%
468 kinases [14]
  inhibition at 0.1 µM: 6%
468 kinases [15]
  inhibition at 0.1 µM: 87%
468 kinases [16]
  inhibition at 0.1 µM: 0%
468 kinases [17]
  inhibition at 0.1 µM: 0%
468 kinases [18]
  inhibition at 0.1 µM: 0%
468 kinases [19]
  inhibition at 0.1 µM: 1%
468 kinases [20]
  inhibition at 0.1 µM: 84%
468 kinases [21]
  inhibition at 0.1 µM: 0%
468 kinases [22]
  inhibition at 0.1 µM: 29%
468 kinases [23]
  inhibition at 0.1 µM: 66%
468 kinases [24]
  inhibition at 0.1 µM: 0%
468 kinases [25]
  inhibition at 0.1 µM: 0%
468 kinases [26]
  inhibition at 0.1 µM: 95.5%
468 kinases [27]
  inhibition at 0.1 µM: 90.2%
468 kinases [28]
  inhibition at 0.1 µM: 0%
468 kinases [29]
  inhibition at 0.1 µM: 0%
468 kinases [30]
  inhibition at 0.1 µM: 0%
468 kinases [31]; RPS6KA4(Kin.Dom.1-N-terminal)
  inhibition at 0.1 µM: 8%
468 kinases [31]; RPS6KA4(Kin.Dom.2-C-terminal)
  inhibition at 0.1 µM: 0%
468 kinases [32]
  inhibition at 0.1 µM: 9%
468 kinases [33]
  inhibition at 0.1 µM: 2%

## CCN(CC)CCNC(=O)c1c(C)[nH]c(/C=C2\C(=O)Nc3ccc(CCC(N)=O)cc32)c1C [Compound No. 16, (Z)-5-((5-(3-Amino-3-oxopropyl)-2-oxoindolin-3-ylidene)methyl)-N-(2-(diethylamino)ethyl)-2,4-dimethyl-1H-pyrrole-3-carboxamide]
468 kinases [1]
  inhibition at 0.1 µM: 10%
468 kinases [2]
  inhibition at 0.1 µM: 0%
468 kinases [3]
  inhibition at 0.1 µM: 58%
468 kinases [4]
  inhibition at 0.1 µM: 49%
468 kinases [5]
  inhibition at 0.1 µM: 88%
468 kinases [6]
  inhibition at 0.1 µM: 16%
468 kinases [7]
  inhibition at 0.1 µM: 14%
468 kinases [8]
  inhibition at 0.1 µM: 9%
468 kinases [9]
  inhibition at 0.1 µM: 47%
468 kinases [10]
  inhibition at 0.1 µM: 55%
468 kinases [11]
  inhibition at 0.1 µM: 0%
468 kinases [12]
  inhibition at 0.1 µM: 15%
468 kinases [13]
  inhibition at 0.1 µM: 8%
468 kinases [14]
  inhibition at 0.1 µM: 60%
468 kinases [15]
  inhibition at 0.1 µM: 76%
468 kinases [16]
  inhibition at 0.1 µM: 19%
468 kinases [17]
  inhibition at 0.1 µM: 5%
468 kinases [18]
  inhibition at 0.1 µM: 31%
468 kinases [19]
  inhibition at 0.1 µM: 19%
468 kinases [20]
  inhibition at 0.1 µM: 55%
468 kinases [21]
  inhibition at 0.1 µM: 3%
468 kinases [22]
  inhibition at 0.1 µM: 44%
468 kinases [23]
  inhibition at 0.1 µM: 51%
468 kinases [24]
  inhibition at 0.1 µM: 78%
468 kinases [25]
  inhibition at 0.1 µM: 38%
468 kinases [26]
  inhibition at 0.1 µM: 96.2%
468 kinases [27]
  inhibition at 0.1 µM: 90.7%
468 kinases [28]
  inhibition at 0.1 µM: 0%
468 kinases [29]
  inhibition at 0.1 µM: 0%
468 kinases [30]
  inhibition at 0.1 µM: 2.1%
468 kinases [31]; RPS6KA4(Kin.Dom.1-N-terminal)
  inhibition at 0.1 µM: 34%
468 kinases [31]; RPS6KA4(Kin.Dom.2-C-terminal)
  inhibition at 0.1 µM: 35%
468 kinases [32]
  inhibition at 0.1 µM: 7%
468 kinases [33]
  inhibition at 0.1 µM: 0%
